Measured values reported in publication PMC6112376, “Comprehensive Analyses and Prioritization of Tox21 10K Chemicals Affecting Mitochondrial Function by in-Depth Mechanistic Studies” (Environmental Health Perspectives, 2018).
Where two headings read alike, the source gives them in different places.

Key:
rat primary hepatocytes [1] = assay: MMP assay in rat primary hepatocytes; details: for IC50: read-out: MMP assays IC50 (µM) Rat Hepatocytes
HepG2 cells [2] = assay: cells; details: Homo sapiens; for IC50: HepG2, read-out: MMP assays IC50 (µM) HepG2; for Emax: HepG2, read-out: MMP assays efficacy (%) HepG2
rat primary hepatocytes [3] = tested on: rat primary hepatocytes
HepG2 cells [4] = details: cited from earlier work
HepG2 cells [5] = details: HepG2 cells, single number from one experiment; for IC50: read-out: MMP assays IC50 (µM) HepG2
[6] = read-out: MMP assays IC50 (µM), qHTS-HepG2
[7] = read-out: MMP assays IC50 (µM) qHTS-HepG2
[8] = rat hepatocytes, mean ± SD of three experiments

| Molecule | IC50 (rat primary hepatocytes [1]; Rattus norvegicus, Hepatocyte) | IC50 (HepG2 cells [2]) | Emax (HepG2 cells [2]) | MMP assays efficacy (%) Rat Hepatocytes (rat primary hepatocytes [3]) | MMP assays efficacy (%) qHTS-HepG2 (HepG2 cells [4]) | IC50 (HepG2 cells [4]; [6]) | IC50 (HepG2 cells [4]; [7]) | MMP assays efficacy (%) Rat Hepatocytes (rat primary hepatocytes [1]; [8]) | IC50 (rat primary hepatocytes [1]; [8]) | IC50 (HepG2 cells [5]) | MMP assays efficacy (%) HepG2 (HepG2 cells [5]) | MMP assays IC50 (µM) Rat Hepatocytes (rat primary hepatocytes [1]; [8]) | MMP assays IC50 (µM) HepG2 (HepG2 cells [5]) | MMP assays IC50 (µM) qHTS-HepG2 (HepG2 cells [4]) |
| --- | --- | --- | --- | --- | --- | --- | --- | --- | --- | --- | --- | --- | --- | --- |
| C[C@]12CC[C@@H]3c4ccc(O)cc4C[C@@H](CCCCCCCCC[S+]([O-])CCCC(F)(F)C(F)(F)F)[C@H]3[C@@H]1CC[C@@H]2O (stereo partly shown) [Fulvestrant] | 8.84 ± 12 µM | 5.48 µM | 94% | -48±0% | -99±7% | 5.86 ± 0.82 µM |  |  |  |  |  |  |  |  |
| CO/N=C(/C1=NOCCO1)c1ccccc1Oc1ncnc(Oc2ccccc2Cl)c1F [Fluoxastrobin] | 37.9 ± 19.3 µM | 11.2 µM | 72% | -105±24% | -81±29% | 45.8 ± 15 µM |  |  |  |  |  |  |  |  |
| Nc1ccc(N)c2ccccc12 [1,4-Naphthalenediamine] | 22.7 ± 8.75 µM | 2 µM | 109% | -44±17% | -88±2% |  | 0.2 ± 0.08 µM |  |  |  |  |  |  |  |
| O=C(CCCN1CCC2(CC1)C(=O)NCN2c1ccccc1)c1ccc(F)cc1 [Spiperone] |  |  | 54% | -74±48% | -65±12% |  |  |  |  |  |  |  |  |  |
| COC(=O)Nc1nc2ccc(C(=O)c3ccccc3)cc2[nH]1 [Mebendazole] |  | 2.34 µM | 89% | inactive | -70±10% | 2.45 ± 0.34 µM |  |  |  |  |  |  |  |  |
| TYROTHRICIN |  |  |  | -89±25% |  |  |  |  |  |  |  |  |  |  |
| CC(O)C(=O)O.CCOc1ccc2nc3cc(N)ccc3c(N)c2c1.O [Ethacridine lactate hydrate] |  |  |  |  | -103±8% |  | 3.22 ± 0.55 µM | -98±24% | 10.2 ± 5.58 µM | 5.48 µM |  |  |  |  |
| CCOc1ccc2[nH]cc(C(=O)NCc3ccccc3)c(=O)c2n1 |  |  |  |  | -88±7% | 14.8 ± 9.66 µM |  | -80±31% | 24 ± 16.6 µM | 15.8 µM | -92% |  |  |  |
| Nc1ccc2cc3ccc(N)cc3nc2c1.Nc1ccc2cc3ccc(N)cc3nc2c1.O=S(=O)(O)O [Proflavin hemisulfate] |  |  |  |  | -115±21% | 3.22 ± 0.82 µM |  | -94±11% | 11.6 ± 5.45 µM | 3.46 µM | -95% |  |  |  |
| N=C1NC(=N)c2cc3ccccc3cc21 [1,3-Diiminobenz(f)isoindoline] |  |  |  |  | -82±11% |  | 11.1 ± 7.81 µM | -68±18% | 26.7 ± 23.6 µM | 35.5 µM | -95% |  |  |  |
| O=C(OCC(COC(=O)c1ccccc1)(COC(=O)c1ccccc1)COC(=O)c1ccccc1)c1ccccc1 |  |  |  |  | -63±21% |  | 4.32 ± 8.63 µM | inactive |  | 7.08 µM | -52% | inactive |  |  |
| O=C(CC(=O)C(F)(F)F)c1ccccc1 [4,4,4-Trifluoro-1-phenyl-1,3-butanedione] |  |  |  |  | -103±7% |  | 20.4 ± 6.17 µM | inactive |  | 31.6 µM | -85% | inactive |  |  |
| O=C(c1ccccc1)c1cccc(O)c1 [Compound 3-Hydroxybenzophenone] |  |  |  |  | -87±9% |  | 27.7 µM | inactive |  | 39.8 µM | -86% | inactive |  |  |
| Dodecylphenol |  |  |  |  |  |  | 3.1 ± 1.22 µM | -59±7% | 41.1 ± 13.2 µM | 3.16 µM | -100% |  |  |  |
| Nc1nc2ccc([N+](=O)[O-])cc2s1 [Compound 2-Amino-6-nitrobenzothiazole] |  |  |  |  | -70±17% |  | 12.7 ± 10.5 µM | -81±29% | 22.7 ± 20.4 µM | 44.7 µM | -89% |  |  |  |
| Nc1ccc(NC(=O)c2ccc(N)cc2)cc1 [4,4'-Diaminobenzanilide] |  |  |  |  | -100±8% |  | 3.72 ± 2.85 µM | -86±15% | 33.5 ± 2.73 µM | 7.08 µM | -93% |  |  |  |
| CN[C@H]1CC[C@@H](c2ccc(Cl)c(Cl)c2)c2ccc(S(N)(=O)=O)cc21 |  |  |  |  | -78±20% |  | 8.31 ± 1.43 µM | -51±37% | 35.7 ± 5.79 µM | 10 µM | -84% |  |  |  |
| C#C[C@]1(OC(=O)CCCCCC)CC[C@H]2[C@@H]3CCC4=CC(=O)CC[C@@H]4[C@H]3CC[C@@]21C [Noristerat] |  |  |  |  | -87±18% | 9.81 ± 1.78 µM |  | inactive |  | 21.8 µM | -117% | inactive |  |  |
| CCc1ccc(O)cc1 [Compound 4-Ethylphenol] |  |  |  |  | inactive |  |  | inactive |  |  | inactive | inactive | inactive | inactive |
| Oc1ccc(Cc2ccccc2O)cc1 [2-(4-Hydroxybenzyl)phenol] |  |  |  |  | -89±11% |  | 27.5 ± 1.92 µM | inactive |  | 35.5 µM | -87% | inactive |  |  |
| CC1C2CC(CC2C2CCCC(O)C2)C1(C)C (stereo not shown) |  |  |  |  | -98±23% |  | 31.8 ± 17.5 µM | inactive |  | 39.8 µM | -108% | inactive |  |  |
| Cl.Cl.Nc1ccc(O)c(N)c1 [2,4-Diaminophenol dihydrochloride] |  |  |  |  | -58±5% |  | 3.77 ± 1.06 µM | inactive |  |  | inactive | inactive | inactive |  |
| COc1cc(Nc2c(C#N)cnc3cc(OCCCN4CCN(C)CC4)c(OC)cc23)c(Cl)cc1Cl [Bosutinib;PF-5208763/SKI-606] |  |  |  |  | -97±4% |  | 0.75 ± 0.48 µM | -56±1% | 16.6 ± 11.2 µM | 1.23 µM | -57% |  |  |  |
| CCOC(=O)c1ccccc1C(=C1C=C(Br)C(=O)C(Br)=C1)c1cc(Br)c(O)c(Br)c1 [Tetrabromophenolphthalein ethyl ester] |  |  |  |  | -105±26% | 23.8 ± 6.89 µM |  | -101±25% | 13.8 ± 0.94 µM | 26.6 µM | -129% |  |  |  |
| CCCCCCCCCCCCCC[P+](CCCCCC)(CCCCCC)CCCCCC.[Cl-] [Trihexyltetradecylphosphonium chloride] |  |  |  |  | -113±11% | 0.77 ± 0.35 µM |  | -91±44% | 30.3 ± 8.97 µM | 0.89 µM | -101% |  |  |  |
| CCN=C1C=CC(=C(c2ccc(N(CC)CC)cc2)c2ccc(N(CC)CC)cc2)c2ccccc21.Cl [Basic blue 7] |  |  |  |  | -87±17% |  | 0.02 ± 0.03 µM | -79±39% | 1.53 ± 1.42 µM | 0.05 µM | -78% |  |  |  |
